This is an account of results in patent US20060228395A1, “Vitamin E phosphate/phosphatidylcholine liposomes to protect from or ameliorate cell damage” (priority 2005, published 2006).

One data set has as its system male albino mice. The data set can be described thus: Allyl alcohol-induced liver injury in male albino mice (SGPT). Type of data set: in vivo. Conditions: allyl alcohol alone, single intraperitoneal dose 50 mg/kg, 4 hours; ± SEM. As to the method:
Influence of vitamin E phosphate/phosphatidylcholine liposomes (see example 1) on Allyl alcohol-induced liver injury was evaluated in male albino mice.

The test system of data set [1] is isolated liver cells (1000×g cell fraction). The data set can be described thus: Iron-dependent liver cell lipid peroxidation (LCLP). Conditions: SEM. In kind it is cell-based.
For data set [2], the system named is Liver cells. Briefly: Incorporation of labeled choline into phosphatidylcholine (PC biosynthesis) by liver cells with iron. Type of data set: cell-based. Conditions: SEM. An excerpt:
The study of effects oil liver cells was also considered based on evaluation of effect on increase in the incorporation of labeled choline into phosphatidylcholine (phosphatidylcholine biosynthesis) by liver cells. Vitamin E phosphate/phosphatidylcholine produced greater beneficial effects than either vitamin E phosphate or phosphatidylcholine.

In a further data set the test system is cultured liver cells. The data set can be described thus: Reversal of ethanol damage in cultured liver cells (phosphatidylcholine biosynthesis). Type of data set: cell-based. Conditions: 96 h, ± SEM. Here is the method: The use of vitamin E phosphate/phosphatidylcholine to effect reversal of damage from ethanol on liver cells was then studied. The cultured liver cells were incubated with 25 mM or 50 mM ethanol for 96 hours, at which time there is significant reduction in liver cell function (phosphatidylcholine biosynthesis). The effect of adding vitamin E phosphate/phosphatidylcholine after 72 hours was studied, and 24 hours later (96 hours after initial exposure to ethanol) values were obtained.

In data set [3] the test system is Liver cells. The data set can be described thus: Phosphatidylcholine formation in liver cells dysfunctional due to ethanol exposure. In kind it is cell-based. As to the method:
Liver cells which had become dysfunctional due to exposure to ethanol were incubated 24 hours with vitamin E phosphate/phosphatidylcholine liposomes. The pmoles of phosphatidylcholine formed per minute/mg protein was then measured with the following results: […]

Setting [4] is: 1 mM iron plus addition: PC 100 μM, VEP 50 μm, or combination VEP/PC.

For the compound `C=CCO` [Allyl alcohol], the SGPT in the data set on male albino mice is 330 ± 15 % of control.
`[Fe]` [iron]: the “LCLP (liver cell lipid peroxidation)” value in data set [1] (1 mM iron alone) is reported as 357 ± 12 % control. Further, the PC biosynthesis with Liver cells [2] (1 mM iron alone) is on record as 254 ± 9 % control.
`Cc1c(C)c2c(c(C)c1OP(=O)(O)O)CCC(C)(CCCC(C)CCCC(C)CCCC(C)C)O2` (centres unmarked) [VEP, vitamin E phosphate]: the “LCLP (liver cell lipid peroxidation)” value in data set [1] (setting [4]) is recorded as 167 ± 3 % control. Also, in the data set on Liver cells [2] (setting [4]), the PC biosynthesis is on record as 145 ± 4 % control.
As to `CCO` [ethanol], the “liver cell function (phosphatidylcholine biosynthesis)” value is 38 ± 2 % control in the data set with cultured liver cells (25 mM ethanol alone) and 22 ± 1 % control with cultured liver cells (50 mM ethanol alone). Besides, the phosphatidylcholine formed with Liver cells [3] (cells exposed to ethanol (control 75)) is recorded as 25 pmoles per minute/mg protein; in the data set on Liver cells [3] (cells exposed to ethanol, then incubated 24 hours in water), 27 pmoles per minute/mg protein.
Consider phosphatidylcholine [PC], for which the “LCLP (liver cell lipid peroxidation)” value in data set [1] (setting [4]) is listed as 281 ± 4 % control. Besides, in the data set with Liver cells [2] (setting [4]), the PC biosynthesis was determined as 167 ± 4 % control.
